Laboratory results as given in PubChem BioAssay (NCI).
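96-well plates; 48 h exposure; 5 concentrations. Endpoints by linear interpolation between flanking doses. Not reached: highest tested concentration assigned. GI50 is the concentration that inhibits growth by half. TGI denotes the concentration required for complete inhibition of growth.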

Columns and labels:
Assay in all cases: growth of human tumour cells (NCI), 48 h
[1] = test system: MOLT-4 leukemia
[2] = test system: A498 renal
[3] = test system: OVCAR-3 ovarian
[4] = test system: HCT-116 colon
[5] = test system: MCF7 breast
[6] = test system: MDA-MB-435
[7] = test system: SK-MEL-2 melanoma
[8] = test system: DU-145 prostate
[9] = test system: SF-539 CNS
[10] = test system: BT-549 breast

| SMILES | GI50 [1] | TGI [1] | GI50 [2] | TGI [2] | GI50 [3] | TGI [3] | GI50 [4] | TGI [4] | GI50 [5] | TGI [5] | GI50 [6] | TGI [6] | GI50 [7] | TGI [7] | GI50 [8] | TGI [8] | GI50 [9] | TGI [9] | GI50 [10] | TGI [10] |
| --- | --- | --- | --- | --- | --- | --- | --- | --- | --- | --- | --- | --- | --- | --- | --- | --- | --- | --- | --- | --- |
| CN1CCN(CCCn2c(=O)c3sc4ncccc4c3n3nnc(-c4ccccc4)c23)CC1 | 1550 nM | 4.95 µM | 159 nM | 9.37 µM | 2300 nM | 7.58 µM | 5230 nM | 11.7 µM | 7.69 µM | 15 µM | 1180 nM | 3.01 µM | 8800 nM | 16.7 µM | 5850 nM | 12.2 µM | 5720 nM | 13.4 µM | – | – |
| CN(C)c1ccc(/C=C(\NC(=O)c2ccccc2)c2nc3ncncc3[nH]2)cc1 | – | > 100 µM | – | – | – | > 100 µM | – | – | – | – | – | – | – | > 100 µM | – | – | – | > 100 µM | – | – |
| CC(C)[C@H]1COC(=O)N1[C@@H]1C(=O)N([C@@H](CCC(=O)N2CCN(C3CCCC3)CC2)C(=O)N[C@@H]2CCCc3ccccc32)[C@@H]1/C=C/c1cccc(Br)c1 | 1450 nM | 7.39 µM | 1400 nM | 4.04 µM | 1970 nM | 3.92 µM | 1570 nM | 2.99 µM | 2.09 µM | 6.33 µM | 1260 nM | 2.65 µM | 1690 nM | 3.3 µM | 1520 nM | 7.57 µM | – | – | 1460 nM | 3.11 µM |
| C#CC1(O)CCC2C3CCc4cc(Oc5nc(F)nc(-c6c7ccccc7c7sc8ccccc8n67)n5)ccc4C3CC[C@@]21C (stereo partly drawn) | – | > 100 µM | – | – | – | > 100 µM | – | > 100 µM | – | – | – | – | – | > 100 µM | – | – | – | > 100 µM | – | – |
| CCc1cc(Cc2cc(CC)c(NC(=O)C(=O)Cc3ccccn3)c(CC)c2Cl)c(Cl)c(CC)c1NC(=O)C(=O)Cc1ccccn1 | – | > 100 µM | – | > 100 µM | – | > 100 µM | – | > 100 µM | – | – | – | – | – | > 100 µM | – | – | – | > 100 µM | – | – |
| c1ccc(COc2cccc3ccc[n+](Cc4ccccc4)c23)cc1 | – | 51.8 µM | – | 97.8 µM | – | – | – | – | – | – | – | – | – | 20.3 µM | – | – | – | > 100 µM | – | – |
| CCCCCCCCC/C=C1\CCC(CN2CCOCC2)C1=O (stereo not drawn) | – | 5.84 µM | – | 24.5 µM | – | 24.9 µM | – | 4.04 µM | – | – | – | 6.5 µM | – | 14.6 µM | – | 17.5 µM | – | 3.74 µM | – | 3.8 µM |
| O=C1NCC2(CCN(CCCC3(c4ccc(F)cc4)OCCO3)CC2)N1c1ccccc1 | – | > 100 µM | – | > 100 µM | – | > 100 µM | – | > 100 µM | – | – | – | > 100 µM | – | > 100 µM | – | > 100 µM | – | > 100 µM | – | – |
| CC(C)(C)OC(=O)N[C@H]1CC2(C=C(Cl)C(=O)C(Cl)=C2)OC1=O | – | 15.7 µM | – | > 9.94 µM | – | 28.1 µM | – | 28 µM | – | 23.3 µM | – | – | – | 41.7 µM | – | 78.9 µM | – | 45.1 µM | – | 29.9 µM |
| C=C1NC(=O)C(C(C)CC)NC(=O)C2CSCC(NC(=O)CCC(=O)O)C(=O)NC(Cc3ccccc3)C(=O)NC(C)C(=O)NC(CC(C)CC)C(=O)NC(C(=O)NC(Cc3ccccc3)C(=O)N3CCCC3C(=O)N2)C(C)OC(=O)C(CO)NC(=O)C(C(O)COC)N(C)C(=O)C(C(C)C)NC(=O)C(CC(C)CC)NC1=O (stereo not drawn) | 55.2 nM | > 6 µM | 6.67 nM | 0.512 µM | 11.8 nM | – | 13.7 nM | > 6 µM | 0.0124 µM | > 6 µM | – | – | 4.85 nM | > 6 µM | 23.8 nM | > 6 µM | 8.68 nM | 0.279 µM | 72.8 nM | > 6 µM |
| COc1ccc([C@H]2[C@@H](F)C(=O)N2c2cc(OC)c(OC)c(OC)c2)cc1F | 146 nM | 93.4 µM | 847 nM | 8.08 µM | 46.5 nM | 0.492 µM | 32.5 nM | > 100 µM | 0.0364 µM | > 100 µM | – | – | 303 nM | > 100 µM | 269 nM | > 100 µM | 28 nM | 0.217 µM | 49.8 nM | 33.8 µM |
| COC(OC)C(C)CC(=O)N(C)C (stereo not drawn) | – | > 100 µM | – | > 100 µM | – | > 100 µM | – | > 100 µM | – | – | – | – | – | > 100 µM | – | – | – | > 100 µM | – | – |
| CC[C@H](Nc1ncnc2nc[nH]c12)c1oc2ccccc2c(=O)c1-c1cccc(F)c1 | 13100 nM | 49.1 µM | – | – | 18300 nM | > 100 µM | 25500 nM | > 100 µM | 21.1 µM | > 100 µM | 18700 nM | 70.7 µM | 18400 nM | 46.7 µM | 26900 nM | > 100 µM | 31400 nM | > 100 µM | 21100 nM | > 100 µM |
| CCOC(=O)C(=C=C=C(c1ccccc1)c1ccccc1)C(=O)OCC | – | 30.8 µM | – | 78.9 µM | – | 31 µM | – | 38.6 µM | – | – | – | – | – | 36.9 µM | – | – | – | 33.8 µM | – | – |
| C=C1C(=O)O[C@H]2[C@H]1CC/C(COC(=O)c1c[nH]c3ccccc13)=C\CC[C@@]1(C)O[C@@H]21 | 282 nM | 1.45 µM | 267 nM | 1.03 µM | 207 nM | 0.483 µM | 193 nM | 0.459 µM | – | – | 242 nM | 0.654 µM | 239 nM | 0.612 µM | 383 nM | 1.4 µM | 264 nM | 1 µM | 175 nM | 0.414 µM |
| CC1(C)C2CCC(=O)C1CC2 (stereo not drawn) | – | > 100 µM | – | > 100 µM | – | > 100 µM | – | > 100 µM | – | > 100 µM | – | > 100 µM | – | > 100 µM | – | > 100 µM | – | > 100 µM | – | – |
| Cc1ccc(NC(=O)c2cc3cc(N=Nc4ccccc4C(=O)O)ccc3oc2=O)cc1 | – | > 100 µM | – | – | – | 74.2 µM | – | > 100 µM | – | – | – | – | – | – | – | – | – | 98.5 µM | – | – |
| OCC#Cc1ccccc1C#Cc1ccccc1 | 3950 nM | > 100 µM | – | – | 6900 nM | 20.3 µM | 15300 nM | 28.6 µM | 19.5 µM | 44.4 µM | 14200 nM | 28.1 µM | 24100 nM | 51.3 µM | 14900 nM | 28.2 µM | – | – | 13200 nM | 27.8 µM |
| Cn1cnc([N+](=O)[O-])c1Sc1nc2ccccc2[nH]1 | – | 29.9 µM | – | 55.9 µM | – | > 100 µM | – | 30.1 µM | – | – | – | – | – | – | – | – | – | 27.8 µM | – | – |
